The subject of experiment [1] is C6 glioma cells. The experiment is described as follows: stimulated nitrite production in C6 glioma cells. The experiment is classed as cell-based.
Experiment [2] relates to NSC-34 cells. The experiment is described as follows: NSC-34 viability after H2O2 challenge (tetrazolium reduction). The experiment is classed as cell-based, mouse. The following applies: H2O2 challenge 24 h. As for the experimental part:
NSC-34 cells were challenged directly with H2O2 for 24 h and the viability was assessed by tetrazolium reduction assay.
Furthermore, the invention contemplates that cytoprotection might be achieved by providing metabolic precursors to LK, rather than direct addition of the compound. For example, the inventor has studied the effects of NSC-34 cells treated with ethyl pyruvate in the presence or absence of lanthionine for 6 h prior to challenge with H2O2 and has assayed the viability of these cells 24 h later (FIG. 10). As reported in previous studies, ethyl pyruvate alone was protective against peroxide-induced cell death (Desagher et al., 1997; Nakamichi et al., 2005) with complete protection at ethyl pyruvate concentrations >1 mM (approximately 2-fold higher than ambient cell culture medium pyruvate concentrations; data not shown).
(R)-LKE1 protects NSC-34 motoneuron x neuroblastoma hybrid cells from hydrogen peroxide toxicity (FIG. 4). Cells were treated with the indicated concentration of (R)-LKE1. Thirty minutes later cells were challenged with the indicated concentration of hydrogen peroxide. Cell viability was assayed 24 hours later by tetrazolium reduction using a commercially available kit (Promega).
NSC-34 motor neuron-like cells, derived through the fusion of a neuroblastoma cell line with embryonic mouse motor neurons (Cashman et al., 1992), were grown in Dulbeco's modified essential medium (DMEM) plus 5% fetal bovine serum (FBS) and 1% penicillin plus 1% streptomycin (Pen/Strep). Recombinant TNFα and interferon gamma (IFNγ) were purchased from BD Biosciences (Pasadena Calif. USA). Lanthionine was purchased from Sequoia Research Products Ltd. (Pangbourne, UK). All other reagents were of the highest available commercial purity.
NSC-34 cells were exposed to 1 mM H2O2 with or without ethyl-pyruvate and/or lantionine (LK).

Experiment [3] has as its system NSC-34 cells. Put plainly: NSC-34 viability after glutamate and/or Ca2+ exposure. The format is cell-based, mouse. Conditions: 1 mM L-glutamate, 1 mM CaCl2 or both, four days. As for the experimental part: NSC-34 motor neuron x neuroblastoma cells were treated with 1 mM L-glutamate, 1 mM CaCl2, or both for four days. (R)-LKE1 was added at t=0 and at t=48 hours, at the indicated concentrations. At the end of four days (t=96 hours) cell viability was assayed by measuring tetrazolium reduction rates using a commercially available kit (Promega).

For experiment [4], the system named is HT4 cells. Put plainly: glutamate toxicity in HT4 cells (LDH leakage). The format is cell-based. The procedure:
FIG. 13. (R)-LK protects HT4 cells against excitotoxicity. Determination of cell viability: HT4 cells were seeded in 6 well plates (1×10^7 cell/well). After 24 h, cell media was changed and (R)-LK (in DMSO) was used for 1 h prior to glutamate challenge. Powdered (R)-LK was dissolved in DMSO just before use. The viability of cells in culture was assessed by measuring the leakage of lactate dehydrogenase (LDH) from cells to media 18-24 h following glutamate treatment using the in vitro toxicology assay kit from Sigma Chemical Co. (St. Louis, Mo., USA). LDH leakage was determined using the following equation: % of total LDH leaked=(LDH activity in the cell culture media/total LDH activity) where total LDH activity=LDH activity in cell monolayer+LDH activity of detached cells+LDH activity in the cell culture media.
FIG. 14. (R)-LKE1 protects HT4 cells against excitotoxicity. […] The viability of cells in culture was assessed by measuring the leakage of lactate dehydrogenase (LDH) from cells to media 18-24 h following glutamate treatment using the in vitro toxicology assay kit from Sigma Chemical Co. (St. Louis, Mo., USA). LDH leakage was determined using the following equation: % of total LDH leaked=(LDH activity in the cell culture media/total LDH activity) where total LDH activity=LDH activity in cell monolayer+LDH activity of detached cells+LDH activity in the cell culture media. […]
For orientation: LDH leaks from cells whose membrane has failed.

In experiment [5] the test system is G93A-SOD1 mice. Put plainly: G93A-SOD1 mouse model of ALS (rotarod, weight). The format is in vivo. The following applies: 100 mg/kg i.p. 5 days/week from day 90. An excerpt:
Transgenic mice. Mice expressing high copy numbers of human mutant G93A-SOD1 (SOD1^G93A mice) were obtained from Jackson Laboratories [Bar Harbor Me. USA; strain designation B6SJL-TgN-(SOD1 G93A)-1-Gur] (Hensley et al., 2002; Hensley et al., 2003; West et al., 2004; Hensley et al., 2006). Transgenic mice were maintained in the hemizygous state by mating SOD1^G93A males with B6SJL-TGN females. Animals were housed in the Oklahoma Medical Research Foundation Laboratory Animal Resource Center.
Mice were trained to a rotarod task at 80 d of age. In this task mice were placed on a horizontal rod that rotates with acceleration at 10 rpm from rest (Hensley et al., 2002; Hensley et al., 2003; West et al., 2004). The time was recorded at which each mouse fell from the rotarod and the test was repeated four times on each trial date. The closest three performance times were averaged for each mouse on each day. For experimental drug treatments mice were injected with LKE at 100 mg/kg/day i.p. Monday-Friday beginning at 90 d. Control animals received saline vehicle. Rotarod performance and weights were recorded at 10 day intervals until death. Animals were euthanized when unable to right themselves within 10 seconds of being placed on their side, or when unable to perform the rotarod task.
Background: The rotarod test checks motor coordination on a turning rod.

In experiment [6] the test system is mice treated with E. coli LPS 0127:B8. The experiment is described as follows: LPS sepsis mouse model, viability. The experiment is classed as in vivo. The following applies: for Dead/alive: 40 mg/kg LPS + 100 mg/kg i.p. daily. As for the experimental part: Six mice were treated with 40 mg/kg E. coli LPS 0127:B8 and co-treated with 100 mg/kg (R)-LKE1 i.p., daily. Viability was compared to a control group, receiving only LPS.

Experimental findings from patent US7683055B2, “Lanthionine-related compounds for the treatment of inflammatory diseases” (Oklahoma Medical Research Foundation, priority 2006, dated 2010) are described below.

With `CCOC(=O)[C@@H]1CSCC(C(=O)O)=N1` [(R)-LKE1], the “suppression of nitrite production” value is given as “does not suppress nitrite production” in experiment [1] (stimulated by TNFα+IFNγ) and “not to suppress nitrite production” in experiment [1] (stimulated by TNFα+LPS). The “protection from H2O2-induced cell death” value in experiment [2] is listed as “protected NSC-34 cells from direct oxidative stress-induced cell death in a dose dependent fashion”. Besides, in experiment [3], the “viability of cells exposed to glutamate and/or Ca2+” value was “increases the viability”. For the same molecule, the “glutamate toxicity (LDH release)” value in experiment [4] is recorded as “significantly diminished glutamate toxicity”. The rotarod performance result in experiment [5] was “improved”. Also, the weight loss entry in experiment [5] is recorded as “inhibited weight loss”. The Dead/alive is 0/6 in experiment [6] (0 h); 2/4 in experiment [6] (18 h); 3/3 in experiment [6] (36 h); 4/2 in experiment [6] (48 h); 4/2 in experiment [6] (72 h). The “chance of surviving the LPS model conditions” value in experiment [6] (co-treated) was “higher chance of surviving”.
